Several values for one entry are separate records, joined by “and”; a condition that tells them apart may be missing. Equal values may be shown once.
What was measured:
[1] = in vivo
[2] = test system: patients with locally advanced or metastatic SCLC, ovarian and cervical cancers; settings: in vivo
[3] = ME-344 plasma pharmacokinetics, Part 1 cycle 1, noncompartmental; settings: ME-344 10 mg/kg IV over 30 min with topotecan, 13 patients, arithmetic mean
[4] = test system: patients with advanced solid tumors; settings: cited from earlier work
[5] = test system: leukemia xenograft models; settings: cited from earlier work
[6] = test system: patients with locally advanced or metastatic SCLC, ovarian cancer or cervical cancer; assay: Phase Ib Part 1: DLT evaluation and RP2D determination; format: in vivo, human; settings: IV over 30 min days 1, 8, 15, 22 every 28 days; topotecan 4 mg/m^2 days 1, 8, 15
[7] = test system: leukemia and lung cancer cell lines; settings: cited from earlier work
patients = settings: topotecan monotherapy; cited from earlier work

end-of-infusion concentration on Day 15 lower than on Day 1 [1]	t1/2 (terminal half-life) [3]	recommended phase II dose (RP2D) of ME-344 in combination with topotecan [6] [mg/kg]	SMILES	patients with SAE related to ME-344 (grade 3 diarrhea) [2] [patient]	neurotoxicity ([2]; iv, 10 mg/kg)	doses at which DLT (grade 3 or higher peripheral neuropathy) was observed ([4]; IV weekly)	recommended phase II dose (RP2D), single agent ([4]; IV weekly) [mg/kg]	duration of prolonged stable disease [4]	patients with prolonged stable disease [4] [patients]	duration of partial response ([4]; single patient with SCLC) [weeks]	anti-tumor activity [5]	cytotoxicity in vitro [7]	grade 3/4 hematologic toxicity rate (patients) [%]	SAEs related to topotecan in the additional patients ([2]; human) [SAEs]	additional patients with SAEs related to topotecan ([2]; human) [patients]
approximately 27%	5.3 h and 5.301 h	10	Cc1c(O)ccc2c1OC[C@@H](c1ccc(O)cc1)[C@H]2c1ccc(O)cc1 [ME-344]	1	neurotoxicity was not observed	15 to 20 mg/kg and > 10 mg/kg	10	31–52 weeks	5	52	demonstrates anti-tumor activity	cytotoxic	–	–	–
–	–	–	CC[C@@]1(O)C(=O)OCc2c1cc1n(c2=O)Cc2cc3c(CN(C)C)c(O)ccc3nc2-1 [topotecan, reference compound]	–	–	–	–	–	–	–	–	–	16.7	6	5
